Experimental data reported in US20240059673A1, “SUBSTITUTED INDOLE COMPOUNDS” (Gilead Sciences, Inc., priority 2020, published 2024).

Experiments:
[1] = target: T1, TLR9 (Homo sapiens, UniProt Q9NR96); test: Human PBMC cell-based assay, TLR9 agonist stimulation; conditions: human PBMCs; TLR9 agonist ODN-2216 3 μM; 6 hours; cytokines (IL-6 and IFNα) in supernatant; Table 2; read-out: TLR-9 EC50
T1 construct: lymphocytes, monocytes and dendritic cells that express TLR7, TLR8 and TLR9; endogenous in cells; host or cells: cryopreserved human PBMCs from healthy donors
T1 sequence (Q9NR96 26-1032): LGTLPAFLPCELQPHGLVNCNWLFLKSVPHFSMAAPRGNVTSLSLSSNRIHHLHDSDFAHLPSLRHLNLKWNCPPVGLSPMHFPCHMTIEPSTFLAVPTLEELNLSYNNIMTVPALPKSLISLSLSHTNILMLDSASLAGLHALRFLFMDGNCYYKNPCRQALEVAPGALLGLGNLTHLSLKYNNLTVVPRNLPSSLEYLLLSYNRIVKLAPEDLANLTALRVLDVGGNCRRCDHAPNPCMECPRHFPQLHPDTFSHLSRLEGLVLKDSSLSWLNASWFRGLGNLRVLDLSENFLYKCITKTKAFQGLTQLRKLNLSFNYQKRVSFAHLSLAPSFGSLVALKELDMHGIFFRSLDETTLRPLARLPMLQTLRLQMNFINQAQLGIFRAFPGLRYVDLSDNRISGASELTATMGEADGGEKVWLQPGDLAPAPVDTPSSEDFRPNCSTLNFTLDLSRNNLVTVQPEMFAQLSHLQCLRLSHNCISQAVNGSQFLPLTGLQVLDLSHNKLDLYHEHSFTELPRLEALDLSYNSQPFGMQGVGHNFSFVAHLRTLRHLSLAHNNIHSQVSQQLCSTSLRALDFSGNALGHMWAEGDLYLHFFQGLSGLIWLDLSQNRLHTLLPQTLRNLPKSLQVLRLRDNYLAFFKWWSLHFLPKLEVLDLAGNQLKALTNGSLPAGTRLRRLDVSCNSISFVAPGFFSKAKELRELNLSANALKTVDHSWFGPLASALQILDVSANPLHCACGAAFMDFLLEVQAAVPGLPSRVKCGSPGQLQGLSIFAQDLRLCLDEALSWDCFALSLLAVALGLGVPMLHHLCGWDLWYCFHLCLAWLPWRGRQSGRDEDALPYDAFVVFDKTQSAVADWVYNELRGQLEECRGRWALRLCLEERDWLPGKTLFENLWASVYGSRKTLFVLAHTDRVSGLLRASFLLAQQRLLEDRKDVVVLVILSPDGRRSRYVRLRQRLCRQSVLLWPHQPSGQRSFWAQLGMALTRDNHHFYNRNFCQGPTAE
Source text: (§1) Human Peripheral Blood Mononuclear Cell (PBMC) Cell-Based Assay
(§2) Human peripheral blood mononuclear cells (PBMCs) consist of lymphocytes, monocytes and dendritic cells that express TLR7, TLR8 and TLR9. These cells respond to TLR7, TLR8 and TLR9 ligand stimulation and produce cytokines and chemokines in vitro and in vivo. Human PBMCs are therefore suitable to be used in a cell-based assay to assess the in vitro potency of a TLR 7, 8, and/or 9 antagonist. The result is expected to be more translatable to the pharmacodynamics response in vivo than cell line-based assays.
(§3) Cryopreserved human PBMCs from healthy donors were thawed and resuspended in RPMI-1640 media with L-glutamine (Corning) supplemented with 10% Fetal Bovine Serum (Hyclone) and 1× Penicillin-Streptomycin (Corning). After counting, the cell density was adjusted to 2 million cells/ml and incubated for 1 hour at 37° C., 5% CO2 for recovery. Following the recovery, the cells were plated by adding 50p per well (100,000 cells) to 384-well cell culture plates (Greiner) containing 250 nl of test antagonists in 100% DMSO per well, in a 10 points dose response in quadruplicates. PBMCs were incubated in the presence of test antagonists for one hour at 37° C., 5% CO2 before being stimulated with a TLR7 or TLR9 agonist. GS-986 (Gilead Sciences) was used as the TLR7 agonist at a final concentration of 400 nM. ODN-2216 (InvivoGen) was used as the TLR9 agonist at a final concentration of 3μM. PBMCs were incubated in the presence of the test antagonist and the TLR7 (or TLR9) agonist for an additional 6 hours at 37° C., 5% CO2. At the end of the incubation, the cell culture plates were centrifuged at 500 g for 5 min, and the cell culture supernatant was collected. The level of cytokines (IL-6 and IFNα) in the supernatant was measured by electrochemiluminescence immunoassays (Mesoscale Discovery) following manufacturer's recommended protocols. The level of cytokine measured was plotted against the test antagonist concentration and fitted to a sigmoidal function to determine the EC50, which are shown below in Table 2.

[2] = target: T2, TLR7 (Homo sapiens, UniProt Q9NYK1); test: Human PBMC cell-based assay, TLR7 agonist stimulation; conditions: human PBMCs; TLR7 agonist GS-986 400 nM; 6 hours; cytokines (IL-6 and IFNα) in supernatant; Table 2; read-out: TLR-7 EC50
T2 construct: lymphocytes, monocytes and dendritic cells that express TLR7, TLR8 and TLR9; endogenous in cells; host or cells: cryopreserved human PBMCs from healthy donors
T2 sequence (Q9NYK1 27-1049): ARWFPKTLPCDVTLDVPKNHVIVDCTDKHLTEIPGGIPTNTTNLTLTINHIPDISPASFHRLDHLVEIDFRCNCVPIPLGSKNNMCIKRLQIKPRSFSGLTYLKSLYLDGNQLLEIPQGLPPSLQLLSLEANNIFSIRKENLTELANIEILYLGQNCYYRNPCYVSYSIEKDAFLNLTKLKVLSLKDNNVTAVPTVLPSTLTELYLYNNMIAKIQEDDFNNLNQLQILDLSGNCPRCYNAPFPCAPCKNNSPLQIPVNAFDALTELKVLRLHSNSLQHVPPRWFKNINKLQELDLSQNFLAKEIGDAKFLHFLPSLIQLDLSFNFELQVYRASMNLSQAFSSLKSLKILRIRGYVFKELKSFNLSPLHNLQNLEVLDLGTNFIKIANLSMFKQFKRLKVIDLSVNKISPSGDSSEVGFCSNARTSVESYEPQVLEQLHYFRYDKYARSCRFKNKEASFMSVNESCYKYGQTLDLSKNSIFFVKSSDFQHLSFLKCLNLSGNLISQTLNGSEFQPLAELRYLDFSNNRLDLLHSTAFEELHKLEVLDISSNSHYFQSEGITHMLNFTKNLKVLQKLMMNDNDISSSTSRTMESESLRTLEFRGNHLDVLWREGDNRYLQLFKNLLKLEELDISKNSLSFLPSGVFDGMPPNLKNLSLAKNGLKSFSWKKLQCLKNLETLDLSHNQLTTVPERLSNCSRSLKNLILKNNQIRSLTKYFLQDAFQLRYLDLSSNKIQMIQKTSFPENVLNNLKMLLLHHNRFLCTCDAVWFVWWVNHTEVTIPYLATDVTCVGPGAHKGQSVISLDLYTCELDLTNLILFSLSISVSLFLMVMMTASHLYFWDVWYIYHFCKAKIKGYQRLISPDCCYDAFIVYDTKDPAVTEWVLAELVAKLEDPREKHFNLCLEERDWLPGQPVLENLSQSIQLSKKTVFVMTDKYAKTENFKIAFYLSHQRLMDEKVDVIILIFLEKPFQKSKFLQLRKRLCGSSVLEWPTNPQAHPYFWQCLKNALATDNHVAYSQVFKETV
Source text: as §1, §2, §3

SMILES	EC50 [1] [nM]	EC50 [2] [nM]
Cc1c(-c2cnc(N3CCNCC3)nc2)[nH]c2cc(-c3cc(C)c4ncnn4c3)ccc12 [Example 3]	169	2.7
Cc1cc(-c2ccc3c(C)c(-c4ccc(N5CCNCC5)nc4)[nH]c3c2)ccn1 [Example 5]	69.3	4.4
Cc1noc(C)c1-c1ccc2c(C)c(-c3ccc(N4CCNCC4)nc3)[nH]c2c1 [Example 6]	2070	442
Cc1c(-c2ccc(N3CCNCC3)nc2)[nH]c2cc(-c3ccnc4ccccc34)ccc12 [Example 8]	367	144
Cc1c(-c2ccc(N3CCNCC3)nc2)[nH]c2cc(-c3cn[nH]c3)ccc12 [Example 9]	467	463
COc1ccc(-c2ccc3c(C)c(-c4ccc(N5CCNCC5)nc4)[nH]c3c2)cc1OC [Example 10]	518	58.8
Cc1cc(-c2ccc3c(C)c(C4=CCNCC4)[nH]c3c2)cc(C)n1 [Example 11, 6-(2,6-dimethylpyridin-4-yl)-3-methyl-2-(1,2,3,6-tetrahydropyridin-4-yl)-1H-indole]	70.1	686
CCc1c(-c2ccc(N3CCNCC3)nc2)[nH]c2cc(-c3cc(C)nc(C)c3)ccc12 [Example 12]	47.8	6.2
CCN1CCC(c2[nH]c3cc(-c4cc(C)nc(C)c4)ccc3c2C)CC1 [Example 13, 6-(2,6-dimethylpyridin-4-yl)-2-(1-ethylpiperidin-4-yl)-3-methyl-1H-indole]	174	> 1000
CCc1c(-c2cnc(N3CCNCC3)nc2)[nH]c2cc(-c3cc(C)nc(C)c3)ccc12 [Example 14]	37.1	6.2
Cc1cc(-c2ccc3c(C)c(-c4ccc(S(=O)(=O)N5CCNCC5)cc4)[nH]c3c2)cc(C)n1 [Example 15]	202	509

Further lines, results first:

EC50 [1] [nM]	EC50 [2] [nM]	SMILES
27.9	67.9	Cc1cc(-c2ccc3c(C)c(-c4cnc5c(c4)CNCC5)[nH]c3c2)cc(C)n1 [Example 16, 3-[6-(2,6-dimethyl-4-pyridyl)-3-methyl-1H-indol-2-yl]-5,6,7,8-tetrahydro-1,6-naphthyridine]
422	193	Cc1cc(-c2ccc3c(C)c(-c4cccc(C(=O)N[C@@H]5CCNC5)c4)[nH]c3c2)cc(C)n1 [Example 17, (R)-3-(6-(2,6-dimethylpyridin-4-yl)-3-methyl-1H-indol-2-yl)-N-(pyrrolidin-3-yl)benzamide]
97.8	336	Cc1cc(-c2ccc3c(C)c(-c4cccc(C(=O)N[C@H]5CCNC5)c4)[nH]c3c2)cc(C)n1 [Example 18]
430	328	Cc1cc(-c2ccc3c(C)c(-c4ccc(C(=O)N[C@@H]5CCNC5)cc4)[nH]c3c2)cc(C)n1 [Example 19]
244	291	Cc1cc(-c2ccc3c(C)c(-c4ccc(C(=O)N[C@H]5CCNC5)cc4)[nH]c3c2)cc(C)n1 [Example 20]
83.6	127	Cc1cc(-c2ccc3c(C)c(-c4ccc(C(=O)N5CCNCC5)cc4)[nH]c3c2)cc(C)n1 [Example 21]
61.3	66.6	Cc1cc(-c2ccc3c(C)c(-c4cccc(C(=O)N5CCNCC5)c4)[nH]c3c2)cc(C)n1 [Example 22, (3-(6-(2,6-dimethylpyridin-4-yl)-3-methyl-1H-indol-2-yl)phenyl)(piperazin-1-yl)methanone]
131	> 1000	Cc1cc(-c2ccc3c(C)c(C4CCN(C(=O)CN(C)C)CC4)[nH]c3c2)cc(C)n1 [Example 24, 2-(dimethylamino)-1-(4-(6-(2,6-dimethylpyridin-4-yl)-3-methyl-1H-indol-2-yl)piperidin-1-yl)ethan-1-one]
2830	> 1000	Cc1cc(-c2ccc3c(C)c(C4CCN(C(=O)c5cccnc5)CC4)[nH]c3c2)cc(C)n1 [Example 25]
1300	> 1000	Cc1cc(-c2ccc3c(C)c(C4CCN(C(=O)CC5CCNCC5)CC4)[nH]c3c2)cc(C)n1 [Example 26]
3390	> 1000	Cc1cc(-c2ccc3c(C)c(C4CCN(C(=O)c5cncn5C)CC4)[nH]c3c2)cc(C)n1 [Example 27]
134	28.3	Cc1cc(-c2cnc3c(C)c(-c4ccc(N5CCNCC5)cc4)[nH]c3c2)cc(C)n1 [Example 28, 6-(2,6-dimethylpyridin-4-yl)-3-methyl-2-(4-(piperazin-1-yl)phenyl)-1H-pyrrolo[3,2-b]pyridine]
77.4	14.7	Cc1cc(-c2cnc3c(C)c(-c4ccc(N5CCNCC5)nc4)[nH]c3c2)cc(C)n1 [Example 29]
37.8	10.2	Cc1cc(-c2ccc3c(C)c(-c4ccc(N5CCN(CCO)CC5)nc4)[nH]c3c2)cc(C)n1 [Example 30, 2-(4-(5-(6-(2,6-dimethylpyridin-4-yl)-3-methyl-1H-indol-2-yl)pyridin-2-yl)piperazin-1-yl)ethan-1-ol]
